Series [1] concerns Mycosphaerella graminicola; Anamorph: Septoria tritici. Description: Leaf Blotch of Wheat (SEPTTR) fungicidal activity on wheat seedlings. The series is classed as in vivo. Particulars: Zymoseptoria tritici, Low Volume, 121.5 g/H. In short, it runs like this:
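Compounds in acetone were diluted with nine volumes of water containing 110 ppm Triton X-100, or as EC formulations with 0.1% Trycol 5941 for track spray. They were sprayed on first-leaf Yuma wheat seedlings inoculated with S. tritici before or after treatment. Plants spent 1 day dark and 2–3 days lit at 100% RH, 20 °C. Severity (0–100%) was scored once untreated plants were fully diseased; control was computed relative to untreated plants.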

Series [2] concerns Puccinia triticina; Synonym: Puccinia recondita f sp. tritici. Put plainly: Wheat Brown Rust (PUCCRT) fungicidal activity on wheat seedlings. The format is in vivo. Particulars: Low Volume, 121.5 g/H. The gist of the method: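 Yuma wheat seedlings (first leaf emerged) were sprayed to run-off with compound in acetone/water 1:9 (110 ppm Triton X-100), and P. triticina spores were inoculated before or after treatment. Plants were kept overnight in a 22 °C dark dew room at 100% RH, then moved to a 24 °C greenhouse; % control was based on first-leaf severity (0–100%) versus untreated plants.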

[3] abbreviates: 24 h, 1 Day Protectant, read-out: SEPTTR 1DP disease control.
Setting [4] is: 72 h, 3 Day Curative, read-out: SEPTTR 3DC disease control.
Setting [5] is: 24 h, 1 Day Protectant, read-out: PUCCRT 1DP disease control.
Where [6] appears, read: 72 h, 3 Day Curative, read-out: PUCCRT 3DC disease control.

The results in this text go back to patent publication US20240423207A1, “PICOLINAMIDE COMPOUNDS WITH FUNGICIDAL ACTIVITY” (CORTEVA AGRISCIENCE LLC, priority 2014, published 2024).

Read-outs that look alike come from different tables or passages of the source. Bounds are passed on as bounds.

For the molecule `COc1ccnc(C(=O)N[C@@H](C)C(=O)O[C@@H](C)C(c2ccc(F)cc2)c2ccc(F)cc2)c1OC(=O)C(C)(C)C` [Cmpd 207], the melting point fell in the range of 52 to 65 °C. Also, the pest or weed control at 121.5 g/ha in series [1] (setting [3]) is > 80%. The pest or weed control at 121.5 g/ha in series [1] (setting [4]) is > 80%.
On to `COc1ccnc(C(=O)N[C@@H](C)C(=O)O[C@@H](C)[C@@H](c2ccccc2)c2ccc(C(F)(F)F)cc2)c1OC(C)=O` [Cmpd 173], for which the pest or weed control at 121.5 g/ha is > 80% in series [1] (setting [3]), > 80% in series [1] (setting [4]), > 80% in series [2] (setting [5]) and < 80% in series [2] (setting [6]).
Consider `COc1ccnc(C(=O)NCC(=O)O[C@@H](C)C(c2ccc(F)cc2)c2ccc(F)cc2)c1OC(C)=O` [Cmpd 187], for which the pest or weed control at 121.5 g/ha is < 80% in series [1] (setting [3]), < 80% in series [1] (setting [4]), > 80% in series [2] (setting [5]) and < 80% in series [2] (setting [6]).

By melting point is commonly meant the temperature of the solid-liquid transition.
